Experimental data published in patent US20250154163A1, “Pyrimidinone-Containing 17-Beta-Hydroxysteroid Dehydrogenase Type 13 Inhibitors” (ENANTA PHARMACEUTICALS, INC., priority 2023, published 2025).

How the values were obtained:
[1] = target: T1, Recombinant human 17β-HSD13 (Homo sapiens, UniProt Q7Z5P4); test: 17β-HSD13 rapid-fire mass spectrometry assay (RF/MS assay); assay type: biochemical; conditions: inhibition of 17β-HSD13, RF/MS assay; HSD17B13 80 nM, LTB4 10 μM, NAD+ 0.5 mM, RT 3 h
T1 construct: host or cells: Sf9 insect cells
T1 sequence (Q7Z5P4 20-300): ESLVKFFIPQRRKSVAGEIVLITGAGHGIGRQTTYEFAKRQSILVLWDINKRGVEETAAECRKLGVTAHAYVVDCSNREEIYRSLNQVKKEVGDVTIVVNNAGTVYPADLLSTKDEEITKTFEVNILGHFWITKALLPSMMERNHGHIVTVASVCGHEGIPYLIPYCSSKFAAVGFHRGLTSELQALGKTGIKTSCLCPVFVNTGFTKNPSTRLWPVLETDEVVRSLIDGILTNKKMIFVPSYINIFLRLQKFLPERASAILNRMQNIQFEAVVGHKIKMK
How it was run: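 Purified recombinant human 17β-HSD13 (sf9-expressed, 80 nM) incubated with compound (0–100 μM), 10 μM LTB4 and 0.5 mM NAD+ in 20 mM Tris pH 7.5, 0.005% BSA, 0.01% Tween-20, 3 h at RT. 12-oxo-LTB4 formation quantified by RapidFire MS/MS; percent conversion normalized to controls, IC50 from variable-slope fit, duplicates.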

[2] = target: T2, human HSD17β13 (stable HEK293T cell line overexpressing human HSD17β13) (Homo sapiens, UniProt Q7Z5P4); test: HSD17β13 inhibitor cell-based screening assay (conversion of estradiol-d2 to estrone-d2 by RF-MS); conditions: conversion of estradiol-d2 to estrone-d2 after 24 hours
T2 construct: expressed in transfected cells
T2 sequence (Q7Z5P4 20-300): T1 sequence (Q7Z5P4 20-300)
How it was run: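 Cellular IC50 is based on 24-h conversion of estradiol-d2 (5 μM final) to estrone-d2, measured by RF-MS in acetonitrile-precipitated supernatants. Assay uses human HSD17β13-overexpressing HEK293T cells (7.5E3/well, 1% charcoal/dextran FBS MEM), with compounds dosed as a 9-point 1:3 series to 10 μM final. ATPlite luminescence on overexpressing and parent lines measured viability.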

| Structure (SMILES) | IC50 [1] [nM] | IC50 [2] [nM] |
| --- | --- | --- |
| COc1cc(C2CC2)c(-c2nc3sc4c(O)c(Cl)ccc4c3c(=O)n2Cc2cnco2)cc1F [Example 76, 7-chloro-2-(2-cyclopropyl-5-fluoro-4-methoxyphenyl)-8-hydroxy-3-(oxazol-5-ylmethyl)benzo[4,5]thieno[2,3-d]pyrimidin-4(3H)-one] | < 100 | < 100 |
| O=c1c2c(nc(-c3cc(Cl)c(Cl)cc3C3CC3)n1Cc1cnco1)sc1c(O)c(Cl)ccc12 [Example 77] | < 100 | < 100 |
| COc1cc(C2CC2)c(-c2nc3sc4c(O)c(Cl)ccc4c3c(=O)n2Cc2cnco2)cc1C(F)(F)F [Example 78] | 100 to 1000 | < 100 |
| O=c1c2c(nc(-c3cc(C(F)(F)F)c(Cl)cc3C3CC3)n1Cc1cnco1)sc1c(O)c(Cl)ccc12 [Example 79] | < 100 | < 100 |
| COc1cc(-c2nc3sc4c(O)c(Cl)ccc4c3c(=O)n2Cc2cnco2)c(C2CC2)cc1F [Example 82, 7-chloro-2-(2-cyclopropyl-4-fluoro-5-methoxyphenyl)-8-hydroxy-3-(oxazol-5-ylmethyl)benzo[4,5]thieno[2,3-d]pyrimidin-4(3H)-one] | < 100 | < 100 |
| COc1ccc(C2CC2)c(-c2nc3sc4c(O)c(Cl)ccc4c3c(=O)n2Cc2cnco2)c1 [Example 83] | < 100 | < 100 |
| O=c1c2c(nc(-c3cc(F)c(F)cc3C3CC3)n1Cc1cc(C(F)(F)F)no1)sc1c(O)c(Cl)ccc12 [Example 85] | < 100 | < 100 |
| COc1ccc(-c2nc3sc4c(O)c(Cl)ccc4c3c(=O)n2Cc2cnn(C)c2)c(C2CC2)c1 [Example 86] | < 100 | < 100 |
| O=c1c2c(nc(-c3ncc(C(F)(F)F)cc3C3CC3)n1Cc1cc(C(F)(F)F)no1)sc1c(O)c(Cl)ccc12 [Example 96] | < 100 | < 100 |
| O=c1c2c(nc(-c3ncc(F)cc3C3CC3)n1Cc1cc(C(F)(F)F)no1)sc1c(O)c(Cl)ccc12 [Example 97] | < 100 | < 100 |
| O=c1c2c(nc(-c3ncc(C(F)(F)F)cc3C3CC3)n1Cc1cnc(C(F)(F)F)nc1)sc1c(O)c(Cl)ccc12 [Example 99] | < 100 | < 100 |
| COc1cc(C2CC2)c(-c2nc3sc4c(O)c(Cl)ccc4c3c(=O)n2Cc2cnco2)cc1Cl [Example 105, 7-chloro-2-(5-chloro-2-cyclopropyl-4-methoxyphenyl)-8-hydroxy-3-(oxazol-5-ylmethyl)benzo[4,5]thieno[2,3-d]pyrimidin-4(3H)-one] | < 100 | < 100 |
| O=c1c2c(nc(-c3ccc(Cl)cc3C3CC3)n1Cc1cnco1)sc1c(O)c(Cl)ccc12 [Example 106] | < 100 | < 100 |
| COc1ccc(-c2nc3sc4c(O)c(Cl)ccc4c3c(=O)n2Cc2cnco2)c(C2CCC2)c1 [Example 117] | < 100 | 100 to 500 |
| O=c1c2c(nc(-c3cc(F)c(F)cc3C3CC3)n1Cc1cnco1)sc1c(O)c(Cl)ccc12 [Example 119] | < 100 | < 100 |
| COc1cc(-c2nc3sc4c(O)c(Cl)ccc4c3c(=O)n2Cc2cnco2)c(C2CC2)cc1Cl [Example 120] | < 100 | < 100 |
| COc1ccc(-c2nc3sc4c(O)c(Cl)ccc4c3c(=O)n2Cc2cnco2)c(Br)c1 [Example 122] | < 100 | < 100 |
| O=c1c2c(nc(-c3cc(F)c(Cl)cc3C3CC3)n1Cc1cnco1)sc1c(O)c(Cl)ccc12 [Example 123] | < 100 | < 100 |
| COc1ccc(-c2nc3sc4c(O)c(Cl)ccc4c3c(=O)n2Cc2cnco2)c(C(C)C)c1 [Example 125] | < 100 | < 100 |

| Structure (SMILES) | IC50 [1] [nM] | IC50 [2] [nM] |
| --- | --- | --- |
| COc1ccc(-c2nc3sc4c(O)c(Cl)ccc4c3c(=O)n2Cc2cn(C(F)(F)F)nn2)c(C2CC2)c1 [Example 130] | < 100 | < 100 |
| O=c1c2c(nc(-c3ccc(OC(F)(F)F)cc3C3CC3)n1Cc1cnco1)sc1c(O)c(Cl)ccc12 [Example 131] | < 100 | < 100 |
| O=c1c2c(nc(-c3ccc(F)c(F)c3C3CC3)n1Cc1cnco1)sc1c(O)c(Cl)ccc12 [Example 132] | < 100 | < 100 |
| O=c1c2c(nc(-c3cc(F)c(C(F)(F)F)cc3C3CC3)n1Cc1cnco1)sc1c(O)c(Cl)ccc12 [Example 133] | < 100 | < 100 |
| O=c1c2c(nc(-c3ccc(C(F)(F)F)cc3C3CC3)n1Cc1cnco1)sc1c(O)c(Cl)ccc12 [Example 135] | < 100 | < 100 |
| COc1cc(F)c(-c2nc3sc4c(O)c(Cl)ccc4c3c(=O)n2Cc2cnco2)c(C2CC2)c1 [Example 137] | < 100 | < 100 |
| O=c1c2c(nc(-c3cc(Cl)c(F)cc3C3CC3)n1Cc1cnco1)sc1c(O)c(Cl)ccc12 [Example 138] | < 100 | < 100 |
| O=c1c2c(nc(-c3cc(OC(F)(F)F)ccc3C3CC3)n1Cc1cnco1)sc1c(O)c(Cl)ccc12 [Example 143] | < 100 | < 100 |
| O=c1c2c(nc(-c3c(F)cc(F)cc3C3CC3)n1Cc1cnco1)sc1c(O)c(Cl)ccc12 [Example 144] | < 100 | < 100 |
| O=c1c2c(nc(-c3c(C4CC4)cc(F)c(F)c3F)n1Cc1cnco1)sc1c(O)c(Cl)ccc12 [Example 147] | < 100 | < 100 |
| O=c1ccc(Cn2c(-c3cc(F)c(F)cc3C3CC3)nc3sc4c(O)c(Cl)ccc4c3c2=O)c[nH]1 [Example 169] | < 100 | < 100 |
| O=c1c2c(nc(-c3ccc(C(F)F)cc3C3CC3)n1Cc1cc(C(F)(F)F)no1)sc1c(O)c(Cl)ccc12 [Example 171] | < 100 | < 100 |
| Cn1cc(Cn2c(-c3cc(F)c(F)cc3C3CC3)nc3sc4c(O)c(Cl)ccc4c3c2=O)ccc1=O [Example 174] | < 100 | < 100 |
| O=c1c2c(nc(-c3cc(F)c(C(F)F)cc3C3CC3)n1Cc1cc(C(F)(F)F)no1)sc1c(O)c(Cl)ccc12 [Example 175] | < 100 | < 100 |
| O=c1c2c(nc(-c3cc(F)c(C(F)F)cc3C3CC3)n1Cc1cnc(C(F)(F)F)nc1)sc1c(O)c(Cl)ccc12 [Example 176] | < 100 | < 100 |
| COc1ccc(-c2nc3sc4c(O)c(Cl)ccc4c3c(=O)n2Cc2cncs2)c(C2CC2)c1 [Example 190] | < 100 | < 100 |
| COc1ccc(-c2nc3sc4c(O)c(Cl)ccc4c3c(=O)n2Cc2cnc(Cl)s2)c(C2CC2)c1 [Example 191] | < 100 | < 100 |
| COc1ccc(-c2nc3sc4c(O)c(Cl)ccc4c3c(=O)n2Cc2ocnc2F)c(C2CC2)c1 [Example 220] | < 100 | < 100 |
